Laboratory results: PubChem BioAssay AID256 (DTP/NCI, 2004)
Several values for one entry are separate records, joined by “and”; a condition that tells them apart may be missing. Equal entries are not always repeated. Inconclusive results and toxic doses are left out. How the source made its calls: active means survival T/C of 150% or more; inactive means T/C below 125% in these data. Non-standard residues stand in square brackets, D forms with d. Residues, ends and D or L forms follow the SMILES beside them. ξ: configuration not given here. ξI = CCC(C)C(N)C(=O)O

Test system: CD2F1 mice, L1210 leukemia ip, survival T/C
Assay: NCI In Vivo Anticancer Drug Screen. Data for tumor model L1210 Leukemia (intraperitoneal) in CD2F1 (CDF1) mice
Conditions: higher = longer survival
Method in brief: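 Read-out first: treated-group measurement over vehicle-control measurement, expressed as a ratio. Animals bore a transplanted tumor line and were dosed with compound or vehicle.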

[1] = endpoint: mean survival time, dose: 100.0 mg/kg/injection, schedule: Q01DX001 (ip), vehicle: saline with Tween-80
[2] = endpoint: mean survival time, dose: 200.0 mg/kg/injection, schedule: Q01DX001 (ip), vehicle: saline with Tween-80
[3] = endpoint: mean survival time, dose: 400.0 mg/kg/injection, schedule: Q01DX001 (ip), vehicle: saline with Tween-80
[4] = endpoint: mean survival time, dose: 100.0 mg/kg/injection, schedule: Q01DX001 (ip), vehicle: saline
[5] = endpoint: mean survival time, dose: 200.0 mg/kg/injection, schedule: Q01DX001 (ip), vehicle: saline
[6] = endpoint: mean survival time, dose: 400.0 mg/kg/injection, schedule: Q01DX001 (ip), vehicle: saline
[7] = endpoint: mean survival time, dose: 100.0 mg/kg/injection, schedule: Q04DX003 (ip), vehicle: Klucel (hydroxypropylcellulose) (HPC)
[8] = endpoint: mean survival time, dose: 200.0 mg/kg/injection, schedule: Q04DX003 (ip), vehicle: Klucel (hydroxypropylcellulose) (HPC)
[9] = endpoint: mean survival time, dose: 400.0 mg/kg/injection, schedule: Q04DX003 (ip), vehicle: Klucel (hydroxypropylcellulose) (HPC)
[10] = endpoint: mean survival time, dose: 100.0 mg/kg/injection, schedule: Q04DX002 (ip), vehicle: saline with Tween-80
[11] = endpoint: mean survival time, dose: 200.0 mg/kg/injection, schedule: Q04DX002 (ip), vehicle: saline with Tween-80
[12] = endpoint: mean survival time, dose: 400.0 mg/kg/injection, schedule: Q04DX002 (ip), vehicle: saline with Tween-80
[13] = endpoint: mean survival time, dose: 100.0 mg/kg/injection, schedule: Q01DX009 (ip), vehicle: saline with Tween-80
[14] = endpoint: mean survival time, dose: 200.0 mg/kg/injection, schedule: Q01DX009 (ip), vehicle: saline with Tween-80
[15] = endpoint: mean survival time, dose: 400.0 mg/kg/injection, schedule: Q01DX009 (ip), vehicle: saline with Tween-80
[16] = endpoint: mean survival time, dose: 50.0 mg/kg/injection, schedule: Q01DX009 (ip), vehicle: saline with Tween-80
[17] = endpoint: mean survival time, dose: 100.0 mg/kg/injection, schedule: Q04DX003 (ip), vehicle: saline with Tween-80
[18] = endpoint: mean survival time, dose: 200.0 mg/kg/injection, schedule: Q04DX003 (ip), vehicle: saline with Tween-80
[19] = endpoint: mean survival time, dose: 1.56 mg/kg/injection, schedule: Q01DX009 (ip), vehicle: saline with Tween-80
[20] = endpoint: mean survival time, dose: 25.0 mg/kg/injection, schedule: Q04DX003 (ip), vehicle: saline with Tween-80
[21] = endpoint: mean survival time, dose: 50.0 mg/kg/injection, schedule: Q04DX003 (ip), vehicle: saline with Tween-80
[22] = endpoint: mean survival time, dose: 400.0 mg/kg/injection, schedule: Q04DX003 (ip), vehicle: saline with Tween-80
[23] = endpoint: mean survival time, dose: 50.0 mg/kg/injection, schedule: Q01DX009 (ip), vehicle: Klucel (hydroxypropylcellulose) (HPC)

Measured: T/C

O=C(OC1C2C=COC(OC3OC(CO)C(O)C(O)C3O)C2C2(CO)OC12)c1ccc(O)cc1 (stereo not drawn)
inactive: endpoint: mean survival time, dose: 25.0 mg/kg/injection, schedule: Q01DX001 (ip), vehicle: carboxymethylcellulose (CMC) 101 % of control | endpoint: mean survival time, dose: 50.0 mg/kg/injection, schedule: Q01DX001 (ip), vehicle: carboxymethylcellulose (CMC) 98 % of control | endpoint: mean survival time, dose: 100.0 mg/kg/injection, schedule: Q01DX001 (ip), vehicle: carboxymethylcellulose (CMC) 89 % of control

CCOc1ccc(-n2c(=O)c(N=Nc3ccccc3)c(O)n(-c3ccccc3OC)c2=S)cc1
inactive: [1] 102 % of control | [2] 89 % of control | [3] 90 % of control

COc1cccc2c1CCC13OC(O)CC21CCCC3C#N (stereo not drawn)
inactive: [4] 95 % of control | [5] 95 % of control | [6] 90 % of control

C#CCCCCCCCCCCC1(c2ccccc2)OCCO1
inactive: [7] 94 % of control | [8] 97 % of control | [9] 95 % of control

CN1C(/C(C(=O)C(F)(F)F)=C(\O)C(F)(F)F)=NCc2ccccc21
inactive: [7] 102 % of control | [8] 98 % of control | [9] 98 % of control

Cc1ccc(NCC(O)C(O)C(O)CO)cc1C (stereo not drawn)
inactive: [10] 106 % of control | [11] 103 % of control

CCC(C)C(NC(=O)CN)C(=O)O (stereo not drawn) (H-Gly-[ξI]-OH)
inactive: [10] 100 % of control | endpoint: mean survival time, dose: 100.0 mg/kg/injection, schedule: Q04DX002 (ip), vehicle: saline 94 % of control | [11] 103 % of control | endpoint: mean survival time, dose: 200.0 mg/kg/injection, schedule: Q04DX002 (ip), vehicle: saline 90 % of control | [12] 95 % of control | endpoint: mean survival time, dose: 400.0 mg/kg/injection, schedule: Q04DX002 (ip), vehicle: saline 101 % of control

OC1CCC(O)C2C3CCC(C3)C12 (stereo not drawn)
inactive: [13] 98 % of control | [14] 100 % of control | [15] 102 % of control

CCOP(=O)(OCC)C1=C(P(=O)(OCC)OCC)C(F)(F)C(F)(F)C1(F)F
inactive: endpoint: mean survival time, dose: 75.0 mg/kg/injection, schedule: Q01DX001 (ip), vehicle: other 107 % of control

O=C(O)c1cnc2cc(Cl)ccc2n1
inactive: [16] 103 % of control | [13] 103 % of control | [17] 98 % of control | [18] 100 % of control

Cc1ccc(-n2c(=S)[nH]c3ccc(C)cc3c2=O)cc1
inactive: endpoint: mean survival time, dose: 0.38 mg/kg/injection, schedule: Q01DX009 (ip), vehicle: saline with Tween-80 90 % of control | endpoint: mean survival time, dose: 0.75 mg/kg/injection, schedule: Q01DX009 (ip), vehicle: saline with Tween-80 92 % of control | endpoint: mean survival time, dose: 1.5 mg/kg/injection, schedule: Q01DX009 (ip), vehicle: saline with Tween-80 98 % of control | [19] 95 % of control | [20] 92 % of control | [21] 90 % of control | [17] 87 % of control

O=c1c(Cl)cc(Cl)cn1S(=O)(=O)c1ccc([N+](=O)[O-])cc1
inactive: [13] 100 % of control | [17] 102 % of control | [14] 102 % of control | [18] 102 % of control | [15] 98 % of control | [22] 101 % of control

CN1C2Cc3cc4c(cc3C1Cc1cc3c(cc12)OCO3)OCO4
inactive: endpoint: mean survival time, dose: 75.0 mg/kg/injection, schedule: Q01DX001 (ip), vehicle: saline 100 % of control | endpoint: mean survival time, dose: 150.0 mg/kg/injection, schedule: Q01DX001 (ip), vehicle: saline 94 % of control

CCCCOCCOCCOCc1cc2c(cc1CCC)OCO2
inactive: [23] 96 % of control | endpoint: mean survival time, dose: 100.0 mg/kg/injection, schedule: Q01DX009 (ip), vehicle: Klucel (hydroxypropylcellulose) (HPC) 89 % of control | endpoint: mean survival time, dose: 200.0 mg/kg/injection, schedule: Q01DX009 (ip), vehicle: Klucel (hydroxypropylcellulose) (HPC) 100 % of control

CCON(C(C)=O)c1cccc([N+](=O)[O-])c1
inactive: [4] 97 % of control | [5] 100 % of control | [6] 97 % of control

O=S(=O)(O)O.[NH-]CC1(C[NH-])CCCCC1.[Pt+2]
inactive: endpoint: mean survival time, dose: 25.0 mg/kg/injection, schedule: Q04DX003 (ip), vehicle: saline 96 % of control | endpoint: median survival time, dose: 15.98 mg/kg/injection, schedule: Q04DX003 (ip), vehicle: dextrose 108 % of control | endpoint: median survival time, dose: 18.0 mg/kg/injection, schedule: Q04DX003 (ip), vehicle: dextrose 93 % of control | endpoint: median survival time, dose: 24.0 mg/kg/injection, schedule: Q04DX003 (ip), vehicle: dextrose 105 % of control

O=C1c2ccccc2-c2ccc(-c3ccc4c5c(cccc35)C(=O)c3ccccc3-4)c3cccc1c23
inactive: [17] 97 % of control | [18] 97 % of control | [22] 86 % of control

CC1OC(C)(C)OC1C(=O)O (stereo not drawn)
inactive: endpoint: mean survival time, dose: 25.0 mg/kg/injection, schedule: Q01DX009 (ip), vehicle: Klucel (hydroxypropylcellulose) (HPC) 92 % of control | [23] 86 % of control

COc1ccc(/C=C2\SC(=O)NC2=O)cc1
inactive: [17] 102 % of control | [18] 100 % of control

CCNC(=O)OCc1c(COC(=O)NCC)c(-c2ccc(Cl)c(Cl)c2)n2c1CCC2
inactive: endpoint: mean survival time, dose: 0.78 mg/kg/injection, schedule: Q01DX009 (ip), vehicle: saline with Tween-80 101 % of control | [19] 108 % of control | [16] 91 % of control and 94 % of control and 111 % of control

CCc1cccc([N+](=O)[O-])c1CC
inactive: [20] 97 % of control | [21] 95 % of control | [17] 100 % of control and 105 % of control

CNc1nc(N)nc2nonc12
inactive: endpoint: mean survival time, dose: 12.5 mg/kg/injection, schedule: Q01DX005 (ip), vehicle: other 98 % of control | endpoint: mean survival time, dose: 25.0 mg/kg/injection, schedule: Q01DX005 (ip), vehicle: other 98 % of control | endpoint: mean survival time, dose: 50.0 mg/kg/injection, schedule: Q01DX005 (ip), vehicle: other 95 % of control | endpoint: mean survival time, dose: 100.0 mg/kg/injection, schedule: Q01DX005 (ip), vehicle: other 86 % of control | endpoint: mean survival time, dose: 200.0 mg/kg/injection, schedule: Q01DX005 (ip), vehicle: other 89 % of control

CN(C)C(C)(C)CC(C)(C)C
inactive: [17] 96 % of control

O=C(Nc1ccc(Nc2ccccc2)cc1)Nc1cc([N+](=O)[O-])ccc1Cl
inactive: endpoint: mean survival time, dose: 50.0 mg/kg/injection, schedule: Q01DX001 (ip), vehicle: saline with Tween-80 92 % of control | [1] 86 % of control and 90 % of control | [13] 91 % of control and 98 % of control | [10] 93 % of control and 100 % of control | [17] 87 % of control | [2] 90 % of control | [14] 100 % of control and 109 % of control | [11] 91 % of control and 92 % of control | [18] 95 % of control | [3] 91 % of control | [15] 103 % of control and 111 % of control | [12] 92 % of control and 98 % of control | [22] 98 % of control

COC(=O)C(=O)O
inactive: [13] 93 % of control | endpoint: mean survival time, dose: 100.0 mg/kg/injection, schedule: Q04DX003 (ip), vehicle: saline 95 % of control | [14] 95 % of control | endpoint: mean survival time, dose: 200.0 mg/kg/injection, schedule: Q04DX003 (ip), vehicle: saline 104 % of control | endpoint: mean survival time, dose: 400.0 mg/kg/injection, schedule: Q04DX003 (ip), vehicle: saline 93 % of control
